According to US9283219B2, “Sublingual films” (Cynapsus Therapeutics, Inc., priority 2010, dated 2016):
Counter-ions that a name gives are not always drawn.

Tests used:
[1] = Permeability studies, Franz diffusion cells; type: in vitro ADME; details: pig
Method: Freshly collected buccal tissues were obtained from pig and mucosa's were isolated carefully. The prepared mucosa membranes with approximate size of 4 cm^2 were mounted between donor and receiver chambers of Franz diffusion cells with available diffusion area of 1.77 cm^2. Test treatments and controls were run in quadruplicate. The receiver compartment, which contained a stirring bar, was filled with 8 mL of KRB buffer, pH 7.4 containing 1% BSA. The Franz cells were placed in a heating/stirring block. The temperature was set at 37° C. in order to maintain the tissue surface temperature at 32° C.; the stirring rate was set at 400 rpm. Two milliliters of formulated compound at different pHs was added to the donor chambers, completely covering the exposed mucosa. All dosing solutions contained 0.1% of sodium dithionite, 0.2% DMSO and 5% propylene glycol or glycerin. The donor compartment was covered with Parafilm to minimize evaporation. An aliquot (˜0.5 mL) was taken from the receiver compartment at 2, 60, 90, and 120 min and replaced with an equal volume of buffer warmed at 37° C. Sampling time points from donor compartment were 0, 60, 90 and 120 min. Samples were diluted with 0.5 mL (1:1) of 10% aq. ascorbic acid. The concentration of each analyte was quantified by LC-MS/MS (Appendix I). The whole study was done in dark with yellow light, and glass vials and syringes were used for sampling. […] Cd final is the concentration of the donor at the end of the incubation period (interval), μM.

[2] = cited from earlier work
[3] = subcutaneous injection, 0.5 mg/kg, literature value; cited from earlier work

Papp at 120 min ([1]; pH 6.4, pH 6.4) [×10⁻⁶ cm/s] | Papp at 120 min ([1]; pH 6.8, pH 6.8) [×10⁻⁶ cm/s] | Papp at 120 min ([1]; pH 7.4, pH 7.4) [×10⁻⁶ cm/s] | Papp at 120 min ([1]; pH 8, pH 8.0) [×10⁻⁶ cm/s] | Papp at 120 min ([1]; pH 8, pH 8.0 + 1% glycerin monostearate) [×10⁻⁶ cm/s] | Papp at 120 min ([1]; pH 8, pH 8.0 + 1% magnesium stearate) [×10⁻⁶ cm/s] | Papp at 120 min ([1]; pH 8, pH 8.0 + 1% tocopherol acetate) [×10⁻⁶ cm/s] | SMILES | adverse effects of intranasal administration ([2]; intranasal administration) | side effect of subcutaneous injection ([2]; subcutaneous injection) | adverse effects of sublingual tablets ([2]; sublingual administration of tablets, prolonged use) | AUCinf [3] [ng·min/mL] | Cmax [3] [ng/mL] | Tmax [3] [min]
0.071 | 0.054 | 0.185 | 0.556 | 2.34 | 0.3 | 0.98 | CN1CCc2cccc3c2[C@H]1Cc1ccc(O)c(O)c1-3 [apomorphine] | transient nasal blockage, burning sensation and swollen nose and lips | development of nodules, which often become infected | severe stomatitis on prolonged use with buccal mucosal ulceration in half the patients | – | – | –
– | – | – | – | – | – | – | CN1CCc2cccc3c2[C@H]1Cc1ccc(O)c(O)c1-3 [sc inj, apomorphine hydrochloride] | – | – | – | 17828 | 331 | 25
